Going from `CCC(C)(C)Br` to `CC(C)NC(C)(C)C`, the boiling point falls from 108 °C to 98 °C.

Going from `CC(C)CCCC(C)C` to `CC(C)CCCC(=O)O`, the boiling point rises from 135 °C to 216 °C.

Going from `CC(C)(OOC(C)(C)c1ccccc1)c1ccccc1` to `Cc1ccc(-c2ccccc2)cc1C`, the boiling point falls from 396 °C to 282 °C.

First: C=CCC(=C)C
Second: C=C(Cl)CC
The boiling point of the first is lower: 56 °C for the first, 58.5 °C for the second.

First: Cc1cccc(C(C)C)c1O
Second: Cc1cccc(N)c1
The boiling point of the first is higher: 226 °C for the first, 203 °C for the second.

First: COCC(=O)c1ccccc1
Second: CCc1ccccc1O
The boiling point of the first is higher: 245 °C for the first, 204 °C for the second.

Compared with `CN1CC1`, `CC1CC1C` (stereo not given) is higher in boiling point: 27.5 °C for the first, 32.6 °C for the second.

Compared with `CCOC(=O)C(F)(F)F`, `CCCCOC(=O)CCl` is higher in boiling point: 61 °C for the first, 183 °C for the second.

Going from `CN(C)c1cccc([N+](=O)[O-])c1` to `COC(=O)c1cccc(OC)c1`, the boiling point falls from 282 °C to 248 °C.

Compared with `C#CCCCCCC`, `CCCCOC` is lower in boiling point: 126 °C for the first, 70.1 °C for the second.

First: Cc1cc(C)on1
Second: Cc1cc(N)cc(C)n1
The boiling point of the first is lower: 143 °C for the first, 246 °C for the second.

Compared with `N#Cc1ccco1`, `Cn1ccc2ccccc21` is higher in boiling point: 147 °C for the first, 237 °C for the second.

First: CC(=O)CCC(C)C
Second: CC(=O)CC(=O)OC(C)C
The boiling point of the first is lower: 144 °C for the first, 186 °C for the second.

Going from `C=C=C(C)C` to `CC(C)N=C=O`, the boiling point rises from 40.8 °C to 74.5 °C.

First: CCCC(CC)CCC
Second: Brc1ccc(Oc2ccccc2)cc1
The boiling point of the first is lower: 141 °C for the first, 310 °C for the second.

Compared with `CCOP(=O)([O-])C(N)=O.[NH4+]`, `CC(=O)CC(=O)OC(C)C` is lower in melting point: 175 °C for the first, -27.3 °C for the second.

First: CC(C)CCCC(C)C
Second: CC(=O)CCC(C)C
The melting point of the first is lower: -103 °C for the first, -74 °C for the second.

Going from `CN(C)C(=O)Nc1ccc(Oc2ccc(Cl)cc2)cc1` to `Brc1ccc(Oc2ccccc2)cc1`, the melting point falls from 151 °C to 18.7 °C.

Compared with `CN1C2CCC1CC(OC(=O)c1ccccc1)C2` (stereo not given), `COCC(=O)c1ccccc1` is lower in melting point: 49 °C for the first, 8 °C for the second.

Compared with `Clc1cccc(Cl)c1N=C1NCCN1`, `N#CCc1c[nH]c2ccccc12` is lower in melting point: 130 °C for the first, 36 °C for the second.

Compared with `Cc1cccc(C(C)C)c1O`, `Cc1ccccc1C(N)=O` is higher in melting point: -14.5 °C for the first, 147 °C for the second.

Compared with `O=Cc1ccccc1[N+](=O)[O-]`, `O=[N+]([O-])c1cc([N+](=O)[O-])c2ccccc2c1O` is higher in melting point: 43.5 °C for the first, 131 °C for the second.

Compared with `O=C(O)[C@H](O)[C@@H](O)C(=O)O` (racemic), `NC(=O)NCCCC(N)C(=O)O` (stereo in doubt) is higher in melting point: 174 °C for the first, 236 °C for the second.

Going from `CC(C)(OC1CCCCC1)C(=O)O` to `COC(=O)C1CC(=O)N(C)C1` (stereo not given), the melting point falls from 75 °C to 15 °C.

First: C#CCOc1ccc(N)cc1C(=O)NCCCC
Second: C#CCCCCCC
The melting point of the first is higher: 84 °C for the first, -79.3 °C for the second.

First: Clc1cc2c(c(Cl)c1Cl)Oc1c(Cl)c(Cl)c(Cl)c(Cl)c1O2
Second: c1ccc2c(c1)cc1ccc3cc4ccccc4c4ccc2c1c34
The melting point of the first is lower: 264 °C for the first, 282 °C for the second.

First: CCCCCCCCCCCBr
Second: CCCCOC
The melting point of the first is higher: -9 °C for the first, -116 °C for the second.

Going from `O=[Se](O)c1ccccc1` to `CCc1ccccc1O`, the melting point falls from 124 °C to 18 °C.

Going from `O=C(CCCN1CCC(O)(c2ccc(Cl)cc2)CC1)c1ccc(F)cc1` to `c1ccc2c(c1)Sc1ccccc1N2CC1CN2CCC1CC2` (stereo not given), the melting point falls from 152 °C to 130 °C.

Going from `CN(C)c1cccc([N+](=O)[O-])c1` to `O=[N+]([O-])c1ccc(N=C=S)cc1`, the melting point rises from 60.5 °C to 111 °C.

Going from `CN(C)Cc1cc(C(C)(C)C)c(O)c(C(C)(C)C)c1` to `Cc1cc(N)cc(C)n1`, the melting point rises from 93.5 °C to 192 °C.

Going from `Cc1cccc(N)c1` to `Cc1cc(-c2ccccc2)ccc1N`, the melting point rises from -31.2 °C to 43 °C.

Going from `Cc1ncc(CO)c(C(=O)O)c1O` to `Cc1ccc(-c2ccccc2)cc1C`, the melting point falls from 248 °C to 29.5 °C.

Compared with `Oc1ccc2c3c1O[C@H]1[C@@H](O)C=C[C@H]4[C@H](C2)NCC[C@@]341`, `CC[C@H](C)C(=O)O[C@H]1CCC=C2C=C[C@H](C)[C@H](CC[C@@H]3C[C@@H](O)CC(=O)O3)[C@H]21` is lower in melting point: 273 °C for the first, 152 °C for the second.

Compared with `Oc1ccncc1`, `O=C(Cl)N(c1ccccc1)c1ccccc1` is lower in melting point: 150 °C for the first, 83 °C for the second.

Compared with `COc1ccccc1OCCNCC(O)COc1cccc2[nH]c3ccccc3c12` (stereo not given), `Nc1ccc(Nc2ccc([N+](=O)[O-])cc2[N+](=O)[O-])cc1` is higher in melting point: 114 °C for the first, 188 °C for the second.

First: C=C=C(C)C
Second: CC1CC1C (stereo not given)
The melting point of the first is higher: -114 °C for the first, -145 °C for the second.

For `N=C(N)N`, the melting point was 50 °C.

Going from `Clc1cc(Cl)c(-c2ccc(Cl)c(Cl)c2Cl)cc1Cl` to `Cc1cccc(N)c1`, the log10 Henry constant (atm·m³/mol) falls from -4.68 to -5.78.

Compound `ClC1=C(Cl)[C@]2(Cl)[C@H]3[C@H]([C@@H]4C=C[C@H]3C4)[C@@]1(Cl)C2(Cl)Cl` (racemic) has a log10 Henry constant (atm·m³/mol) of -4.36.

Compared with `Clc1cc(Cl)c(-c2ccc(Cl)c(Cl)c2Cl)cc1Cl`, `Clc1cc2c(c(Cl)c1Cl)Oc1c(Cl)c(Cl)c(Cl)c(Cl)c1O2` is higher in log10 Koa: 9.8 for the first, 11.4 for the second.

Compound `ClC1=C(Cl)[C@]2(Cl)[C@H]3[C@H]([C@@H]4C=C[C@H]3C4)[C@@]1(Cl)C2(Cl)Cl` (racemic) has a log10 Koa of 8.08.

Going from `Clc1cc(Cl)c(-c2ccc(Cl)c(Cl)c2Cl)cc1Cl` to `c1ccc2c(c1)cc1ccc3cc4ccccc4c4ccc2c1c34`, the log10 Koc (L/kg) falls from 5.93 to 5.71.

Compared with `CN(C)C(=O)Nc1ccc(Oc2ccc(Cl)cc2)cc1`, `Brc1ccc(Oc2ccccc2)cc1` is higher in log10 Koc (L/kg): 3.55 for the first, 4.23 for the second.

Compared with `Cc1cccc(N)c1`, `ClC1=C(Cl)[C@]2(Cl)[C@H]3[C@H]([C@@H]4C=C[C@H]3C4)[C@@]1(Cl)C2(Cl)Cl` (racemic) is higher in log10 Koc (L/kg): 1.53 for the first, 4.69 for the second.

Going from `Clc1cc(Cl)c(-c2ccc(Cl)c(Cl)c2Cl)cc1Cl` to `Clc1cc2c(c(Cl)c1Cl)Oc1c(Cl)c(Cl)c(Cl)c(Cl)c1O2`, the log10 vapour pressure (mmHg) falls from -5.42 to -10.2.

Going from `CN(C)C(=O)Nc1ccc(Oc2ccc(Cl)cc2)cc1` to `Brc1ccc(Oc2ccccc2)cc1`, the log10 vapour pressure (mmHg) rises from -8.41 to -2.82.

Going from `O=Cc1ccccc1[N+](=O)[O-]` to `CCc1ccccc1O`, the log10 vapour pressure (mmHg) rises from -1.75 to -0.815.

First: CCCCCCCCCCCBr
Second: CCCCCCCCCC(C)O (stereo not given)
The log10 vapour pressure (mmHg) of the first is lower: -1.92 for the first, -1.48 for the second.

First: C#CCCCCCC
Second: CCCCOC
The log10 vapour pressure (mmHg) of the first is lower: 1.13 for the first, 2.14 for the second.

First: Cc1cccc(N)c1
Second: Nc1ccc(Nc2ccc([N+](=O)[O-])cc2[N+](=O)[O-])cc1
The log10 vapour pressure (mmHg) of the first is higher: -0.519 for the first, -10.2 for the second.

Going from `CC(=O)CCC(C)C` to `C=C=C(C)C`, the log10 vapour pressure (mmHg) rises from 0.761 to 2.63.

`ClC1=C(Cl)[C@]2(Cl)[C@H]3[C@H]([C@@H]4C=C[C@H]3C4)[C@@]1(Cl)C2(Cl)Cl` (racemic) gave a log10 vapour pressure (mmHg) of -3.92.

With `NC(=O)CC[C@H](N)C(=O)O` the ready biodegradability was “readily biodegradable”.
For `CN(C)C(=O)Nc1ccc(Oc2ccc(Cl)cc2)cc1`, the ready biodegradability was “not readily biodegradable”.
With `Nc1cccc(S(=O)(=O)O)c1` the ready biodegradability was “not readily biodegradable”.
With `CC(C)(OOC(C)(C)c1ccccc1)c1ccccc1` the ready biodegradability was “not readily biodegradable”.
In the case of `CC(=O)C(N=Nc1ccc(-c2ccc(N=NC(C(C)=O)C(=O)Nc3ccccc3)c(Cl)c2)cc1Cl)C(=O)Nc1ccccc1` (stereo not given), the ready biodegradability was “not readily biodegradable”.
With `Cc1cccc(N)c1` the ready biodegradability was “not readily biodegradable”.
For `Oc1ccncc1`, the ready biodegradability was “readily biodegradable”.

Compound `c1ccc2c(c1)cc1ccc3cc4ccccc4c4ccc2c1c34` has a log10 biodegradation half-life (days) of 2.47.

— the OPERA property sets (Mansouri et al. 2018)
